Our source for the melting point values is a melting point compilation (Tetko et al.).

Molecules are shown by their SMILES.

For the compound `O=C(CCl)Nc1nc2ccc(F)cc2s1`, the melting point was in the range of 170 to 172 °C. `O=C(O)c1c[nH]c(-c2ccccc2)n1` returned a melting point of 240 to 242 °C.

The compound `Cc1ccc(C(=O)O)cc1S(N)(=O)=O` yielded a melting point of 275 to 277 °C. `COc1cccc(NCCC(=O)O)c1` yielded a melting point of 87 to 89 °C.

`O=C(CCl)NC(=O)NC1CC1`: the melting point was 105 to 107 °C. In the case of `CC1CCCCC1N1C(=O)C=CC1=O` (centres undefined) it was 40 to 42 °C; in that of `CCOC(=O)c1cc(N)cc(S(C)(=O)=O)c1`, 190 to 192 °C. In the case of `Cc1cccc2c(=O)[nH]c(CC#N)nc12` it was 233 to 235 °C.

`CC1CC1c1ccc(/C=C/C(=O)O)o1` (centres undefined) had a melting point of 73 to 75 °C. Compound `CC1(C(=O)O)CCOCC1` returned a melting point of 62 to 64 °C. In the case of `Cc1nc2ccccc2c(=O)n1-c1ccc(C(=O)O)cc1`, the melting point lay within 220 to 222 °C. Take `Cc1ccc(CN2CCSCC2)cc1N`: the melting point is 136 to 138 °C.

Compound `Brc1nn2cc(-c3ccccc3)nc2s1` showed a melting point of 186 to 188 °C.

Consider `Cn1ccnc1C(=O)OCC(F)(F)F`, for which the melting point fell in the range of 83 to 85 °C. In the case of `N#Cc1ccc(Cl)cc1[N+](=O)[O-]`, the melting point fell in the range of 95 to 100 °C.

`N#Cc1cccnc1-n1cncn1` showed a melting point of 201 to 203 °C. With `CCn1nc(C(=O)O)ccc1=O`, the melting point fell in the range of 203 to 205 °C. Regarding `CCc1cc(N)on1`, the melting point was 49 to 51 °C. The value for `Cc1cc(Br)ncc1[N+](=O)[O-]` was 64 to 66 °C; that for `CC(C)n1ncc2c(C(=O)O)cc(-c3ccco3)nc21` was 275 to 277 °C. Turning to `Nc1sc2c(c1C(=O)N1CCOCC1)CCCC2`, the melting point lay within 90 to 92 °C. The value for `Cc1c(O)cccc1OCCN1CCOCC1` was 117 to 119 °C; that for `Oc1cccc2ccc(N3CCCC3)nc12` was 85 to 87 °C. The compound `Cn1cnc2cc(C(=O)O)ccc21` showed a melting point of 313 to 315 °C. `O=C(O)C1CSCCS1` (centres undefined) registered a melting point of 58 to 60 °C. Compound `COC(=O)CCc1ccc(N)cc1` yielded a melting point of 39 to 41 °C.

In turn, `O=C(O)c1ccc(NC(=O)c2ccc(Br)cc2)cc1` yielded a melting point of 327 to 329 °C. As to `CC(C)(C)C(O)C(=O)O` (centres undefined), the melting point lay in the range of 65 to 67 °C. The value for `O=C(O)c1nc(-c2cccs2)n(-c2ccc(F)cc2)n1` was 196 to 198 °C; that for `N=c1[nH]cnn1-c1ccccc1` was 148 to 150 °C; that for `O=C(O)c1ccccc1SCc1cccs1` was 178 to 180 °C. In turn, `NC(=O)CNCCC1CCCCC1` gave a melting point of 111 to 113 °C. The value for `O=C(NCC(F)(F)F)c1cccc(S(=O)(=O)Cl)c1` was 83 to 85 °C; that for `Cc1cc(Br)c2c(c1)C(=O)CCO2` was 84 to 86 °C; that for `Cc1ccccc1CNc1ccc2[nH]c(=O)[nH]c2c1` was 204 to 206 °C.

Compound `NC(=O)c1cnn2c3c(cnc12)CCOC3=O` gave a melting point of 289 to 291 °C. Compound `CCOC(=O)c1cnn(-c2nccs2)c1N` had a melting point of 104 to 106 °C. Turning to `CN(CC#N)C(=O)c1ccccc1`, the melting point fell in the range of 73 to 75 °C. With `Cc1[nH]c(-c2ccnc(Cl)c2)nc(=O)c1C`, the melting point fell in the range of 253 to 255 °C. Turning to `CC(Nc1ncc(C(=O)O)cc1Cl)c1cccnc1` (centres undefined), the melting point was 184 to 186 °C. On to `Cc1nn(-c2cccc(F)c2)c(C(F)F)c1C(=O)O`, for which the melting point was in the range of 187 to 189 °C. In turn, `O=C(O)c1cc(COc2c(Cl)cccc2Cl)on1` yielded a melting point of 159 to 161 °C. The compound `N#Cc1ccc(N2CCNC(=O)C2)cc1` yielded a melting point of 224 to 226 °C. As for `CC(C)c1ccc(C(=O)N2CCNCC2)cc1`, the melting point was in the range of 129 to 131 °C. `Cc1ccccc1-c1nn[nH]n1` returned a melting point of 153 to 155 °C. The value for `CN1CCN(S(=O)(=O)c2ccc(NN)nc2)CC1` was 168 to 170 °C. `Sc1nccn1Cc1ccccn1` showed a melting point of 173 to 175 °C.

For the compound `O=C(O)c1ccc(-n2cncn2)c(F)c1`, the melting point lay within 285 to 287 °C. Compound `Cc1n[nH]c(-c2ccccc2I)n1` showed a melting point of 154 to 156 °C.

One may read the melting point as the temperature, or range, at which the solid turns liquid.
